We go through two compounds from patent EP2439195B1, “NAPHTHALENE CARBOXAMIDE DERIVATIVES AS INHIBITORS OF PROTEIN KINASE AND HISTONE DEACETYLASE, PREPARATION METHODS AND USES THEREOF” (Shenzhen Chipscreen Biosciences, Ltd., priority 2009, dated 2010).

One data set deals with T1, human PDGFRβ (Homo sapiens, UniProt P09619).
T1 construct: expressed in transfected cells
Briefly: PDGF dependent cell proliferation (MTS). Type of data set: cell-based. The conditions noted are these: PDGFRβ NIH-3T3 cells, PDGF BB (50ng/ml), 72 hours, serum-free medium; read-out: Gl50 nM (PDGF ligand-dependent cell proliferation). The method, then: NIH-3T3 mouse fibroblasts cell line engineered to stably express human PDGFRβ was constructed and used to evaluate PDGF dependent cell proliferation. PDGFRβ NIH-3T3 cells were plated into 96-well plates at 5,000 per well and incubated overnight with serum-free medium after 24 hours. Compounds to be tested and PDGF BB (50ng/ml) were added and incubated for 72 hours in serum-free medium. The effects on proliferation were determined by MTS method (Promega) according to the instruction. Incubation was performed for 2 hours at 37°C in CO2 incubator, and absorbance at 490nm was measured using an ELISA plate reader.

In a further data set the test system is HUVEC cells. Briefly: VEGF dependent cell proliferation (MTS). Format: cell-based. The conditions noted are these: Homo sapiens, VEGF 165 (50ng/ml), 72 hours, serum-free medium, read-out: Gl50 nM (VEGF ligand-dependent cell proliferation). As to the method:
HUVEC cells were plated into 96-well plates at 6,000 per well and after 24 hours incubated with serum-free medium for 2 hours. Compounds to be tested and VEGF 165 (50ng/ml) were added and incubated for 72 hours in serum-free medium. The effects on cell proliferation were determined by MTS method (Promega) according to the instruction. Incubation was performed for 2 hours at 37°C in CO2 incubator, and absorbance at 490nm was determined using an ELISA plate reader.

The test system of another data set is Class I HDAC. In words: HDAC subtype selectivity reporter gene assay (P21 reporter, HeLa cells). The conditions noted are these: Homo sapiens; 10µM; HeLa cells, 24 hours; read-out: Class I HDAC (P21 reporter assay) Fold Induction at 10µM. Type of data set: cell-based. As to the method:
Different HDAC subtypes can bind with different transcriptional factors and involve in expression regulation of various genes. Suitable regulation elements for transcriptional factors are selected to construct reporter genes, which can be used to evaluate the selective inhibition of inhibors on HDAC subtypes. Briefly, HeLa cells were seeded in 96-well plates the day before transfection to give a confluence of 50-80% when transfection. Cells were transfected with one of reporter gene plasmid containing a p21-promoter sequence or response element upstream of a luciferase gene construct using FuGene6 transfection reagent according to the manufacturer's instruction (Roche). For normalizing the transfection efficiency, a GFP expression plasmid was cotransfected. After 24 hours compounds or the vehicle control (DMSO) were added. 24 hours later the cells were harvested and lysed, and the amount of the luciferase was evaluated using luciferase assay kits (Promega) according to the manufacturer's instructions.
A general note: Reporter assays use an easily measured gene product as a stand-in for the process of interest.

The next data set concerns Bel-7402. Briefly: Tumor cell proliferation (MTS), Bel-7402. Format: cell-based. The conditions noted are these: Homo sapiens; Bel-7402, 72 hours; read-out: Gl50 µM in Bel-7402. As to the method:
(§1) Tumor cells were trypsinized and plated into 96-well plates at 3,000 per well and incubated in complete medium with 10% FBS for 24 hours. Compounds to be tested and vehicle control were added, and the final concentration of compound is in the range of 100 nmol/L to 100 µmol/L. The compounds were incubated for 72 hours in complete medium. The MTS reagent (Promega) was added according to the instruction, incubated for 2 hours at 37°C in CO2 incubator. Then absorbance at 490nm is read using an ELISA plate reader.

A further data set deals with MCF-7. Briefly: Tumor cell proliferation (MTS), MCF-7. Type of data set: cell-based. The conditions noted are these: Homo sapiens, MCF7; MCF-7, 72 hours; read-out: Gl50 µM in MCF-7. The method, then:
as §1

The test system of the next data set is total HDAC enzyme. Briefly: In vitro total HDAC enzyme activity (HDAC Fluorimetric Assay/Drug Discovery Kit, HeLa cell nuclear extract). Format: biochemical. As to the method:
The in vitro total HDAC enzyme activity was determined by HDAC Fluorimetric Assay/Drug Discovery Kit (BIOMOL) according to manufacture's instruction. The principle of the experiment is as follows: under the action of histone deacetylase (in the experiment, HeLa cell nuclear extract, which was rich in a variety of subtypes of HDAC, was used), an acetyl group is removed from a special substrate Fluor de Lys, thus the free amino is exposed. Upon Developer is added, the substrate will produce fluorescence. For the fluorescence, excitation wavelength is 360nm, and emission wavelength is 460nm. More fully the substrate deacetylated, more higher the fluorescence induced. In the absence of inhibitors, the fluorescence value is taken as the control; when inhibitor is existed, fluorescence value induced will be reduced, while in the case no enzyme is existed (corresponding to the completely inhibition of enzyme activity) the fluorescence value is blank. Generally, after suppression the fluorescence values will be between the control and blank. When analysis is made, blank will be used as 0, and the control will be used as 1. Smaller value means higher inhibitory activity. 1. Add Assay buffer, diluted trichostatin A and test inhibitor to appropriate wells of the microtiter plate. Following table lists the amounts used for each regent of various assay types.
2. Add diluted HeLa nucleoprotein extract to all wells except those that are marked as "blank". 3. Allow diluted Fluor de Lys™ Substrate and the samples in the microtiter plate to equilibrate to 25°C. 4. Initiate HDAC reactions by adding diluted substrate (25 µl) to each well and mixing thoroughly. 5. Allow reactions to proceed for 30 minutes and then stop them by addition of Fluor de Lys™ Developer (50 µl). Incubate plate at room temperature (25°C) for 10-15 min. 6. Read fluorescence of samples on a microtiter-plate reading fluorimeter at a excitation wavelength of 369 nm and a emitted wavelength of 451 nm.

The test system of another data set is A549. In words: Tumor cell proliferation (MTS), A549. The conditions noted are these: Homo sapiens; A549, 72 hours; read-out: Gl50 µM in A549. Type of data set: cell-based. The method, then:
as §1

Another data set relates to HCT-8. Briefly: Tumor cell proliferation (MTS), HCT-8. Format: cell-based. The conditions noted are these: Homo sapiens; HCT-8, 72 hours; read-out: Gl50 µM in HCT-8. The method, then: as §1
For the next data set, the system named is A-498. In words: Tumor cell proliferation (MTS), A-498. Format: cell-based. The conditions noted are these: Homo sapiens, A498; A-498, 72 hours; read-out: Gl50 µM in A-498. The method, then: as §1
The subject of data set [1] is SSMC7721 human liver cancer cells. Briefly: Nude mice tumor transplanted from human SSMC7721 liver cancer (Example 53). Type of data set: in vivo. The conditions noted are these: for TGI (%): tumor growth inhibition. As to the method: Female nu/nu mice of 18∼20g were fed by normal diet for 3 days. Then the cultured SSMC7721 human liver cancer cells were implanted into the armpit of 50 mice. […] One group was treated with vehicle. One group was treated with Sutent, the positive control drug. […] Each group was dosed orally once a day for 24 days. […] The tumor growth inhibition of each group was calculated using the following formula: {[([…])} × 100%. [formula] The experimental results are shown in Table 7 and Figure 3.

Where [2] appears, read: 2.5 mg/kg orally once a day for 24 days.
The mark [3] stands for this setting: 5 mg/kg orally once a day for 24 days.
Setting [4] is: 10 mg/kg orally once a day for 24 days.
Where [5] appears, read: 20 mg/kg orally once a day for 24 days.

Molecules are shown by their SMILES. pIC50: −log10 of the molar value.

T1 sequence (P09619 33-1106): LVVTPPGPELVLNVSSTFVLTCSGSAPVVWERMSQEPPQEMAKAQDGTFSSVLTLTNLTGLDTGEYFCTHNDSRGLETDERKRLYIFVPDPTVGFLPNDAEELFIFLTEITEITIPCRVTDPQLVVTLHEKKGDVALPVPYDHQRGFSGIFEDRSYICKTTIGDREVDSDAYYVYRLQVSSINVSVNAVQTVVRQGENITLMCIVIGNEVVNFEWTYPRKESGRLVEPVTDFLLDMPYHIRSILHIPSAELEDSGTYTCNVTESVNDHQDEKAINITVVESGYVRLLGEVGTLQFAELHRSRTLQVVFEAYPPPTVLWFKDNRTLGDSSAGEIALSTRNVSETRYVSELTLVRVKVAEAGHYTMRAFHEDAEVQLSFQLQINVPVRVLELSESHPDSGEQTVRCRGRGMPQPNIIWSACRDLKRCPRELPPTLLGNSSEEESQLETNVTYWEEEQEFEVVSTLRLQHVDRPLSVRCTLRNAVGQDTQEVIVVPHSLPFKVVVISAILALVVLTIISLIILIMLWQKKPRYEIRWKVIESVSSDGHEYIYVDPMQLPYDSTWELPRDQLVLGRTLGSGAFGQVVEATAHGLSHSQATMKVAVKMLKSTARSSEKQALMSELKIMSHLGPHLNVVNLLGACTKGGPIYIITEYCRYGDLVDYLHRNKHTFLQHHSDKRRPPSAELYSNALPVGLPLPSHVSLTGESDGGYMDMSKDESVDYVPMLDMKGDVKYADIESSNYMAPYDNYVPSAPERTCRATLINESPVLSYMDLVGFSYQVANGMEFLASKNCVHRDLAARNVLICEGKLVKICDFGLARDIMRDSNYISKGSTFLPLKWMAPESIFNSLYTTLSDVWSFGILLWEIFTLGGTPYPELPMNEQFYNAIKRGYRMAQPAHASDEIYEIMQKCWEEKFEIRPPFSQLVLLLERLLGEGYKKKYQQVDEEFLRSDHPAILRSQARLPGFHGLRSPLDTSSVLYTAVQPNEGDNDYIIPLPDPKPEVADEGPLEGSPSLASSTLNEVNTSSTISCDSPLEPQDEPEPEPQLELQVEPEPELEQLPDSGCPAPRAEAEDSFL

As for `COc1ccc2c(Oc3ccc4c(C(=O)NCc5ccc(C(=O)Nc6ccccc6N)cc5)cccc4c3)ccnc2c1` [Compound 33, N-(4-((2-aminophenyl)carbamoyl)benzyl)-6-(7-methoxyquinolin-4-yloxy)-1-naphthamide], the pIC50 on human PDGFRβ is 6.52; in the data set with HUVEC cells, 8.10; with Bel-7402 it was 5.55; in the data set with MCF-7, 5.70; in the data set on A549, 5.68; with HCT-8, 5.82. For the same compound, the pIC50 in the data set with A-498 is 5.72. Also, the fold induction at 10 µM with Class I HDAC is 2.8. Also, the “% inhibition of total HDAC enzyme activity at 30µM” value with total HDAC enzyme amounted to 39.1%.
In the case of `COc1ccc2c(Oc3ccc4c(C(=O)Nc5ccccc5N)cccc4c3)ccnc2c1` [Compound 31, N-(2-aminophenyl)-6-(7-methoxyquinolin-4-yloxy)-1-naphthamide], the pIC50 at human PDGFRβ was 7.34; in the data set on HUVEC cells, 8.30; in the data set on Bel-7402 it was 4.52; in the data set with MCF-7 it was 4.99; with A549, 4.76; with HCT-8, 5.18. For the same compound, the pIC50 in the data set on A-498 is 5.02. Also, the fold induction at 10 µM in the data set on Class I HDAC amounted to 1.6. Also, in the data set on total HDAC enzyme, the “% inhibition of total HDAC enzyme activity at 30µM” value was determined as 10.1%. Further, the “Tumor weight” value in data set [1] (setting [2]) worked out at 1.63 ± 0.70 g; in data set [1] (setting [3]), 1.16 ± 0.55 g; in [1] (setting [4]), 0.70 ± 0.45 g; in [1] (setting [5]), 0.53 ± 0.28 g. For the same compound, the “Body weight (g) end” value in data set [1] (setting [2]) was 23.2 ± 2.1 g; in data set [1] (setting [3]) it was 24.8 ± 1.5 g; in data set [1] (setting [4]), 23.6 ± 1.5 g; in data set [1] (setting [5]), 21.0 ± 2.2 g. Besides, the “Body weight (g) start” value in [1] (setting [2]) worked out at 20.1 ± 0.9 g; in [1] (setting [3]), 20.8 ± 1.2 g; in data set [1] (setting [4]), 20.4 ± 1.6 g; in [1] (setting [5]) it was 20.2 ± 1.7 g. Moreover, the “TGI (%)” value in data set [1] (setting [2]) amounted to 51.7%; in [1] (setting [3]), 65.4%; in data set [1] (setting [4]), 79.2%; in data set [1] (setting [5]) it was 84.4%.
